Legend:
[1] = system: pancreatic cancer cell line Colo 357; test: Cytotoxicity in conventional 2D cultures, Cytotox green, Incucyte live cell imaging; assay type: cell-based; settings: 24 hours of treatment, FIG. 1
Experimental: FIG. 1. Cytotoxicity of the indicated compounds. Cells plated on 96-well plates were incubated in the presence of 50 μM of the indicated compounds and fluorescence of the dead-cell marker Cytotox green was monitored over time. In the Figure, fluorescence values after 24 h are reported normalized to the value obtained in the presence of DMSO. […] The symbols indicate biological replicates (with three technical replicates each).
(§1) To test the activity of the compounds on biological systems, we chose the pancreatic cancer cell line Colo 357, which expresses Kv1.3 and is sensitive to cell-permeant Kv1.3 inhibitors (Zaccagnino et al., Oncotarget 8, 38276-38293, 2017). Growth, cell viability and apoptosis were all determined by high content imaging in a Incucyte (Sartorius) live cell imaging device. Images were taken every hour for several days after addition of the compounds dissolved in DMSO (time 0) and the corresponding indicators, CytotoxGreen or CytotoxRed for cytotoxicity and the green Caspase 3/7 activity reporter for apoptosis.
The first screening for cytotoxicity was performed on conventional 2D cultures (FIG. 1).

Colo 357 tumor spheroids [2] = test: Cytotoxicity on tumor spheroids (3-D cultures), Cytotox green; assay type: cell-based, human; settings: concentrations as low as 5 μM, 48 h treatment, FIG. 3
Experimental: FIG. 3. Cytotoxicity of the indicated compounds on tumor spheroids. Fluorescence of the dead-cell marker Cytotox green was monitored over time. In the Figure, fluorescence values after 48 h in the presence of the indicated concentration of the compound are reported normalized to the value obtained in the presence of DMSO. The symbols indicate biological replicates (with three technical replicates each).
as §1
To obtain information on the effect of the compounds in a model more similar to the situation in vivo, the effects of 2 and 8 were also studied in tumor spheroids. […] Cytotoxicity was determined as in the conventional 2D cultures but after 48 h treatment instead of 24 h, because the effects needed longer time to develop.

[3] = system: pancreatic cancer cell line Colo 357; test: Apoptosis in 2D culture, caspase 3/7 activity reporter; assay type: cell-based, human; settings: 24 h incubation, FIG. 2; for Apoptosis induction (caspases 3/7 activation): already at 5 μM
Experimental: FIG. 2. Levels of apoptosis observed in the presence of the indicated compounds after 24 hours incubation. Apoptosis was measured as activation of the executor caspases 3/7, using a fluorescent indicator. The values were normalized against the apoptosis level observed in the presence of the solvent (DMSO). The symbols indicate biological replicates (with three technical replicates each).
as §1
The toxic effect of both compounds was induced through apoptosis, as expected from mitoKv1.3 inhibitors Urbani, A., et al., Front Cell Dev Biol 8, 620081, 2021). FIG. 2 represents apoptosis induction after 24 h incubation in the presence of compound 2 and 8 at the indicated concentrations.

Colo 357 tumor spheroids [4] = test: Apoptosis in tumor spheroids (3D culture), caspase 3/7 reporter; assay type: cell-based, human; settings: 25 μM, FIG. 6
Experimental: FIG. 4. Levels of apoptosis observed in the presence of the indicated compounds during 48 h of treatment. Images were acquired every hour. Apoptosis was measured as activation of the executor caspases 3/7, using a fluorescent indicator. Mean±SEM, three replicates.
FIG. 5. Levels of apoptosis observed in the presence of the indicated compounds over time at two different concentrations (the curves for control and 5 μM are the same as in FIG. 4). Apoptosis was measured as activation of the executor caspases 3/7, using a fluorescent indicator. The open symbols in orange represent 5 μM, solid symbols indicate 25 μM.
FIG. 6. Comparison of the time course of the induction of apoptosis (orange) and of cell death (blue) in the presence of 25 μM compound 8. […]
To test the activity of the compounds on biological systems, we chose the pancreatic cancer cell line Colo 357, which expresses Kv1.3 and is sensitive to cell-permeant Kv1.3 inhibitors (Zaccagnino et al., Oncotarget 8, 38276-38293, 2017). Growth, cell viability and apoptosis were all determined by high content imaging in a Incucyte (Sartorius) live cell imaging device. […]
Cell death in 3D culture was also attributable to induction of apoptosis. […] The fluorescence of the caspase 3/7 reporter was detectable soon after addition of the treatment and was markedly more intense than the values measured in the control treatment (DMSO).

[5] = system: HEK293 and K562 cells, and T and B cells from healthy subjects; settings: cited from earlier work
KV1.3 = settings: cited from earlier work
[6] = system: human SAOS2, mouse B16F10 melanoma, and human B-CLL; settings: cited from earlier work
KV1.5 = KV1.5 (Homo sapiens, UniProt P22460); settings: cited from earlier work
[7] = system: Jurkat leukemia T cells, mouse melanoma B16F10 cells, human PDAC cells (Bx-PC3, PANC-1, As-PC1, CAPAN-1); settings: B16F10, Bx-PC3, PANC-1, As-PC1, CAPAN-1 cells; cited from earlier work
[8] = system: orthotopic melanoma B16F10; settings: cited from earlier work; for B16F10 tumor volume: orthotopic mouse B16F10 melanoma model
[9] = system: human pancreatic Colo357 tumors; settings: mice; cited from earlier work
cancer cells = settings: in vitro and in vivo studies; cited from earlier work
[10] = cited from earlier work
[11] = system: pancreatic ductal adenocarcinoma (PDAC) cells; settings: cited from earlier work
[12] = system: orthotopic PDAC xenograft; settings: SCID beige mouse; cited from earlier work
[13] = system: KV1.1, KV1.2, KV1.5 and KV3.1; settings: cited from earlier work

Structure (SMILES): COc1ccccc1C(=O)NC[C@]1(c2ccsc2)CC[C@H](OC(=O)NCCC[P+](c2ccccc2)(c2ccccc2)c2ccccc2)CC1.[I-] [Example 2, (3-(((((1S,4S)-4-((2-Methoxybenzamido)methyl)-4-(thiophen-3-yl)cyclohexyl)oxy)carbonyl)amino)propyl)triphenylphosphonium iodide]
- Cell death (cytotoxicity screening) [1]: most intense effect
- Cytotoxicity in tumor spheroids (Colo 357 tumor spheroids [2]): significant levels of cytotoxicity
- Dose dependence of the intensity of apoptosis induction [3]: increased in a dose-dependent manner
- Apoptosis induction (caspases 3/7 activation) [3]: strong increase in apoptotic cells

Structure (SMILES): COc1ccccc1C(=O)NCC1(c2ccsc2)CCC(OC(=O)NCCCC[P+](c2ccccc2)(c2ccccc2)c2ccccc2)CC1.[I-] [Example 8, (4-(((((1S,4S)-4-((2-Methoxybenzamido)methyl)-4-(thiophen-3-yl)cyclohexyl)oxy)carbonyl)amino)butyl)triphenylphosphonium iodide]
- Cell death (cytotoxicity screening) [1]: most intense effect
- Cytotoxicity in tumor spheroids (Colo 357 tumor spheroids [2]): significant levels of cytotoxicity
- Time course of apoptosis compared with cytotoxicity in spheroids (Colo 357 tumor spheroids [4]): initiation of the decline in apoptosis signal corresponds to the start of the increase in the number of dead cells
- Dose dependence of the intensity of apoptosis induction [3]: increased in a dose-dependent manner
- Apoptosis induction (caspases 3/7 activation) [3]: strong increase in apoptotic cells

Structure (SMILES): O=c1ccc2c(OCCCCOc3ccccc3)c3ccoc3cc2o1 [PAP-1, 4-(4-phenoxybutoxy)-7H-furo[3,2-g]chromen-7-one]
- Effects on healthy cells [5]: did not show similar effects
- Apoptosis in cancer cells [6]: induced apoptosis

Structure (SMILES): O=c1ccc2c(OCCCCOc3ccc(CCC[P+](c4ccccc4)(c4ccccc4)c4ccccc4)cc3)c3ccoc3cc2o1.[I-] [PAPTP, (3-(4-(4-((7-oxo-7H-furo[3,2-g]chromen-4-yl)oxy)butoxy)phenyl)propyl)triphenylphosphonium iodide]
- Cell death [7]: induced cell death
- Tumor volume reduction ([8]; co-applied with cisplatin): more than 90%
- B16F10 tumor volume [8]: greatly reduce
- Colo357 tumors [9]: significant reductions
- Effectiveness compared with the parent PAP-1 (cancer cells): much more effective than the parent PAP-1

Structure (SMILES): O=C(NCCC[P+](c1ccccc1)(c1ccccc1)c1ccccc1)Oc1ccc(OCCCCOc2c3ccoc3cc3oc(=O)ccc23)cc1.[I-] [PCARBTP, (3-(((4-(4-((7-oxo-7H-furo[3,2-g]chromen-4-yl)oxy)butoxy)phenoxy)carbonyl)amino)propyl)triphenylphosphonium iodide]
- Cell death [7]: induced cell death
- B16F10 tumor volume [8]: greatly reduce
- Hydrolysis in culture medium ([10]; Dulbecco's modified Eagle medium): slow hydrolysis
- Hydrolysis in mouse blood ([10]; physiological conditions, mouse blood): hydrolyzed to PAPOH
- Colo357 tumors [9]: significant reductions
- Effectiveness compared with the parent PAP-1 (cancer cells): much more effective than the parent PAP-1

Structure (SMILES): O=C(OCCC[P+](c1ccccc1)(c1ccccc1)c1ccccc1)Oc1ccc(OCCCCOc2c3ccoc3cc3oc(=O)ccc23)cc1.[I-] [PCTP, (3-(((4-(4-((7-oxo-7H-furo[3,2-g]chromen-4-yl)oxy)butoxy)phenoxy)carbonyl)oxy)propyl)triphenylphosphonium iodide]
- Cell death [7]: induced cell death
- Effectiveness compared with the parent PAP-1 (cancer cells): much more effective than the parent PAP-1

Structure (SMILES): O=c1ccc2c(OCCCCc3ccccc3)c3ccoc3cc2o1 [Psora-4, 4-(4-Phenylbutoxy)-7H-furo[3,2-g][1]benzopyran-7-one]
- Effects on healthy cells [5]: did not show similar effects
- Apoptosis in cancer cells [6]: induced apoptosis

Structure (SMILES): CC(C)N=c1cc2n(-c3ccc(Cl)cc3)c3ccccc3nc-2cc1Nc1ccc(Cl)cc1 [clofazimine, N,5-bis(4-chlorophenyl)-3-propan-2-yliminophenazin-2-amine]
- Apoptosis in PDAC cells [11]: induced apoptosis
- Effects on healthy cells [5]: did not show similar effects
- Primary tumor weight [12]: significantly reduced
- Selectivity over KV1.1, KV1.2, KV1.5 and KV3.1 [13]: tenfold
- IC50 (KV1.3): 300 nM
- Reduction of tumor size ([8]; orthotopic melanoma B16F10 line, mouse): 90%
- Apoptosis in cancer cells [6]: induced apoptosis
